Assay results taken from patent US7816332B2, “Stable aqueous solution of natamycin fungicide” (DSM IP Assets B.V., priority 2003, dated 2010).
Like-named read-outs stand apart in the source and are kept apart here.

Experiments:
[1] = Dissolution of natamycin when preparing solutions, with controls (Example 1); format: physicochemical
Procedure: (§1) • An ethanolic aqueous solution having a pH of 12.8 was prepared by mixing 60 ml of a 0.04 N sodium hydroxide solution and 40 ml of 96% ethanol. • While stirring vigorously, 1 g of natamycin was added. The natamycin dissolved within 2 minutes. • Immediately after dissolution, the obtained concentrated natamycin solution was added to 20 l of a 0.01 M citrate buffer solution. A solution containing 57 ppm of natamycin and 0.2% of ethanol with a pH of 6.5 was obtained. • In a similar manner, a solution containing 101 ppm of natamycin and 0.4% of ethanol and a solution containing 202 ppm of natamycin and 0.8% of ethanol was obtained by adding the concentrated natamycin solution to […] of a 0.01 M citrate buffer respectively. Preparation of the Natamycin Solutions (2)
Controls • 1 g of natamycin was added to a neutral ethanolic aqueous system containing up to 40% of ethanol.

[2] = Stability of buffered natamycin solutions on storage, HPLC (Example 1); format: physicochemical; conditions: for amount of natamycin after storage (HPLC): 24 hours at 21° C.
Procedure: as §1
Stability of the Solutions • The amount of natamycin in the compositions (1) was determined after 24 hours storage at 21° C. The amount of natamycin was determined using well-known methods (HPLC) and shown to be 57, 97 and 196 ppm respectively. Hardly any loss of activity was observed after 9 days storage at 6° C. The concentration of natamycin was 49, 100 and 170 ppm respectively. Even after storage for 9 days at 21° C., the concentration of natamycin of the composition containing 101 ppm at t=0 was 99 ppm.

[3] = Stability of non-buffered natamycin solutions on storage (Example 2); format: physicochemical
Procedure: This Example describes the rapid preparation of a stable aqueous composition of natamycin in a non-buffered aqueous system with enhanced solubility. • A concentrated natamycin solution was prepared as described in Example 1 (1). • However, after diluting the concentrated natamycin solution in water, the pH was adjusted to 6.4-6.6 using HCL. Finally, solutions containing 101 and 202 ppm of natamycin were obtained. • The amount of natamycin in the compositions was determined after 24 hours storage at 21° C. The concentration of natamycin was 99 and 192 ppm respectively. Hardly any loss of activity was observed after 9 days storage at 6° C. The concentration of natamycin was 98 and 198 ppm respectively. Even after storage for 9 days at 21° C. the concentration of natamycin in the composition containing 101 ppm at t=0 was 82 ppm. […] The amount of dissolved natamycin of these solutions is at least 6 times higher than the maximum solubility in water at the same pH values

most foodborne fungi = conditions: cited from earlier work
most yeasts = conditions: cited from earlier work
[4] = cited from earlier work

## C[C@@H]1C/C=C/C=C/C=C/C=C/[C@H](O[C@@H]2O[C@H](C)[C@@H](O)[C@H](N)[C@@H]2O)C[C@@H]2O[C@](O)(C[C@@H](O)C[C@H]3O[C@@H]3/C=C/C(=O)O1)C[C@H](O)[C@H]2C(=O)O [natamycin]
[1]; 1 g natamycin in 100 ml ethanolic aqueous solution of pH 12.8 (0.04 N NaOH / 96% ethanol 60:40), vigorous stirring
  time to dissolve: ≤ 2 min
[1]; 1 g natamycin in neutral ethanolic aqueous system containing up to 40% ethanol, a few hours of stirring
  dissolution (control): not fully dissolved
[1]; 200 ppm natamycin in buffered aqueous system, solvent not present
  dissolution (control): did not dissolve
[1]; 200 ppm natamycin, solvent present, without first raising the pH to 12.8
  dissolution (control): did not dissolve
[1]; same procedure as Example 1 without adding a solvent
  dissolution (control): did not dissolve
[2]; Example 1 buffered solutions
  amount of dissolved natamycin relative to maximum solubility in water at the same pH: at least 6 times
[2]; solution with 57 ppm at t=0, 0.2% ethanol, citrate buffer pH 6.5
  amount of natamycin after storage (HPLC): 57 ppm
[2]; solution with 57 ppm at t=0, 0.2% ethanol, citrate buffer, 9 days at 6° C.
  concentration of natamycin after storage: 49 ppm
[2]; solution with 101 ppm at t=0, 0.4% ethanol, citrate buffer
  amount of natamycin after storage (HPLC): 97 ppm
[2]; solution with 101 ppm at t=0, 0.4% ethanol, citrate buffer, 9 days at 6° C.
  concentration of natamycin after storage: 100 ppm
[2]; solution with 101 ppm at t=0, citrate buffer, 9 days at 21° C.
  concentration of natamycin after storage: 99 ppm
[2]; solution with 202 ppm at t=0, 0.8% ethanol, citrate buffer
  amount of natamycin after storage (HPLC): 196 ppm
[2]; solution with 202 ppm at t=0, 0.8% ethanol, citrate buffer, 9 days at 6° C.
  concentration of natamycin after storage: 170 ppm
[3]; Example 2 non-buffered solutions
  amount of dissolved natamycin relative to maximum solubility in water at the same pH: at least 6 times
[3]; non-buffered solution with 101 ppm at t=0, pH 6.4-6.6 (HCl), 24 hours at 21° C.
  concentration of natamycin after storage: 99 ppm
[3]; non-buffered solution with 101 ppm at t=0, 9 days at 6° C.
  concentration of natamycin after storage: 98 ppm
[3]; non-buffered solution with 101 ppm at t=0, 9 days at 21° C.
  concentration of natamycin after storage: 82 ppm
[3]; non-buffered solution with 202 ppm at t=0, pH 6.4-6.6 (HCl), 24 hours at 21° C.
  concentration of natamycin after storage: 192 ppm
[3]; non-buffered solution with 202 ppm at t=0, 9 days at 6° C.
  concentration of natamycin after storage: 198 ppm
Most foodborne fungi
  minimal inhibitory concentration: less than 10 ppm
Most yeasts
  minimal inhibitory concentration: less than 5 ppm
[4]; acetone/water (4:1) system
  maximum solubility: 110 ppm
[4]; ethanol/water (4:1) system
  solubility: 220 ppm
[4]; pure ethanol
  solubility: 40 ppm
[4]; water at neutral pH levels
  solubility in water: 30 ppm
